Values quoted from earlier work, collected in PubChem BioAssay AID1259409 (Chemical Carcinogenesis Research Information System (CCRIS), 2018).

Tested on: rodent chemically induced tumor inhibition, incidence and multiplicity
Experiment: CCRIS tumor inhibitor studies

## COc1cc(/C=C/C(=O)CC(=O)/C=C/c2ccc(O)c(OC)c2)ccc1O
Carcinogen: BENZO[A]PYRENE, 50-32-8, Dose [Inhibitor]: 0, 10 UMOL IN ACETONE APPLIED 120, 60 AND 5 MIN PRIOR TO CARCINOGEN DOSE (STUDY DURATION: 24 WK), Route [Inhibitor]: DERMAL, Species: MOUSE, Strain/Sex: CD-1/FEMALE, Target Tissue: Type of Lesion: SKIN: TUMORS, Dose [Carcinogen]: 200 NMOL ONCE, Promoter: 12-O-TETRADECANOYLPHORBOL-13-ACETATE, 16561-29-8
  tumour outcome (control, treated, inhibition, significance): 96%, 77%, 20%, not calculated
Carcinogen: METHYL(ACETOXYMETHYL)NITROSAMINE, 56856-83-8, Dose [Inhibitor]: 0, 5% IN DIET FOR DURATION OF STUDY BEGINNING 2 WK PRIOR TO CARCINOGEN TREATMENT (STUDY DURATION: 13 MO), Route [Inhibitor]: ORAL, Species: HAMSTER, Strain/Sex: SYRIAN/FEMALE, Target Tissue: Type of Lesion: ORAL: CAVITY, Dose [Carcinogen]: 2 MG/KG BW APPLIED TO RIGHT CHEEK POUCH 2/MO FOR 6 MO, Promoter: NONE USED
  tumour outcome (control, treated, inhibition, significance): 14/15 (93%), 3/16 (19%), 80%, p<0.001
Carcinogen: N-ETHYL-N'-NITRO-N-NITROSOGUANDINDE, 4245-77-6, Dose [Inhibitor]: 0, 1% COMMERCIAL GRADE CURCUMIN IN DIET FOR 16 WK BEGINNING 1 WK POST CARCINOGEN TREATMENT (STUDY DURATION: 20 WK), Route [Inhibitor]: ORAL, Species: MOUSE, Strain/Sex: C57BL/MALE, Target Tissue: Type of Lesion: DUODENUM: ADENOMA, Dose [Carcinogen]: 120 MG/L IN DRINKING WATER FOR 4 WK, Promoter: NONE USED
  tumour outcome (control, treated, inhibition, significance): 45%, 28%, 38%, not significant
Carcinogen: N-ETHYL-N'-NITRO-N-NITROSOGUANIDINE, 4245-77-6, Dose [Inhibitor]: 0, 0.5% COMMERCIAL GRADE CURCUMIN IN DIET FOR 16 WK BEGINNING 1 WK POST CARCINOGEN TREATMENT (STUDY DURATION: 20 WK), Route [Inhibitor]: ORAL, Species: MOUSE, Strain/Sex: C57BL/MALE, Target Tissue: Type of Lesion: DUODENUM: ADENOCARCINOMA, Dose [Carcinogen]: 120 MG/L IN DRINKING WATER FOR 4 WK, Promoter: NONE USED
  tumour outcome (control, treated, inhibition, significance): 6%, 4%, 33%, not significant
Carcinogen: N-ETHYL-N'-NITRO-N-NITROSOGUANIDINE, 4245-77-6, Dose [Inhibitor]: 0, 0.5% COMMERCIAL GRADE CURCUMIN IN DIET FOR 16 WK BEGINNING 1 WK POST CARCINOGEN TREATMENT (STUDY DURATION: 20 WK), Route [Inhibitor]: ORAL, Species: MOUSE, Strain/Sex: C57BL/MALE, Target Tissue: Type of Lesion: DUODENUM: ADENOMA, Dose [Carcinogen]: 120 MG/L IN DRINKING WATER FOR 4 WK, Promoter: NONE USED
  tumour outcome (control, treated, inhibition, significance): 45%, 20%, 56%, not significant
Carcinogen: N-ETHYL-N'-NITRO-N-NITROSOGUANIDINE, 4245-77-6, Dose [Inhibitor]: 0, 1% COMMERCIAL GRADE CURCUMIN IN DIET FOR 16 WK BEGINNING 1 WK POST CARCINOGEN TREATMENT (STUDY DURATION: 20 WK), Route [Inhibitor]: ORAL, Species: MOUSE, Strain/Sex: C57BL/MALE, Target Tissue: Type of Lesion: DUODENUM: ADENOCARCINOMA, Dose [Carcinogen]: 120 MG/L IN DRINKING WATER FOR 4 WK, Promoter: NONE USED
  tumour outcome (control, treated, inhibition, significance): 6%, 4%, 33%, not significant
Carcinogen: N-ETHYL-N'-NITRO-N-NITROSOGUANIDINE, 4245-77-6, Dose [Inhibitor]: 0, 2% COMMERCIAL GRADE CURCUMIN IN DIET FOR 16 WK BEGINNING 1 WK POST CARCINOGEN TREATMENT (STUDY DURATION: 20 WK), Route [Inhibitor]: ORAL, Species: MOUSE, Strain/Sex: C57BL/MALE, Target Tissue: Type of Lesion: DUODENUM: ADENOCARCINOMA, Dose [Carcinogen]: 120 MG/L IN DRINKING WATER FOR 4 WK, Promoter: NONE USED
  tumour outcome (control, treated, inhibition, significance): 6%, 5%, 17%, not significant
Carcinogen: N-ETHYL-N'-NITRO-N-NITROSOGUANIDINE, 4245-77-6, Dose [Inhibitor]: 0, 2% COMMERCIAL GRADE CURCUMIN IN DIET FOR 16 WK BEGINNING 1 WK POST CARCINOGEN TREATMENT (STUDY DURATION: 20 WK), Route [Inhibitor]: ORAL, Species: MOUSE, Strain/Sex: C57BL/MALE, Target Tissue: Type of Lesion: DUODENUM: ADENOMA, Dose [Carcinogen]: 120 MG/L IN DRINKING WATER FOR 4 WK, Promoter: NONE USED
  tumour outcome (control, treated, inhibition, significance): 45%, 27%, 40%, not significant
Carcinogen: N-METHYL-N'-NITRO-N-NITROSOGUANIDINE, 70-25-7, Route [Inhibitor]: 0, 0.05% IN DIET FOR 55 WK BEGINNING IMMEDIATELY POST-CARCINOGEN TREATMENT, THEN SWITCHED TO BASAL DIET FOR 4 WK (STUDY, Species: RAT, Strain/Sex: WISTAR/MALE, Target Tissue: Type of Lesion: GLANDULAR STOMACH: ADENOCARCINOMA, Dose [Carcinogen]: 100 PPM IN DRINKING WATER FOR 8 WK, Promoter: SODIUM CHLORIDE, 7647-14-5
  tumour outcome (control, treated, inhibition, significance): 1/29 (3%), 2/29 (7%), -133%, not significant
Carcinogen: N-METHYL-N'-NITRO-N-NITROSOGUANIDINE, 70-25-7, Route [Inhibitor]: 0, 0.2% IN DIET FOR 55 WK BEGINNING IMMEDIATELY POST-CARCINOGEN TREATMENT, THEN SWITCHED TO BASAL DIET FOR 4 WK (STUDY D, Species: RAT, Strain/Sex: WISTAR/MALE, Target Tissue: Type of Lesion: GLANDULAR STOMACH: ADENOCARCINOMA, Dose [Carcinogen]: 100 PPM IN DRINKING WATER FOR 8 WK, Promoter: SODIUM CHLORIDE, 7647-14-5
  tumour outcome (control, treated, inhibition, significance): 1/29 (3%), 2/30 (7%), -133%, not significant
Carcinogen: NONE USED, Dose [Inhibitor]: 0, 2% IN DIET FROM 12 MO OF AGE (STUDY DURATION: 15 MO), Route [Inhibitor]: ORAL, Species: MOUSE, Strain/Sex: C3H/FEMALE, Target Tissue: Type of Lesion: MAMMARY GLAND: TUMOR, Promoter: NONE USED
  tumour outcome (control, treated, inhibition, significance): 12/20 (60%), 8/18 (44%), 27%, not calculated
Carcinogen: NONE USED, Dose [Inhibitor]: 0, 5% IN DIET FROM 6 MO OF AGE (STUDY DURATION: 15 MO), Route [Inhibitor]: ORAL, Species: MOUSE, Strain/Sex: C3H/FEMALE, Target Tissue: Type of Lesion: MAMMARY GLAND: TUMOR, Promoter: NONE USED
  tumour outcome (control, treated, inhibition, significance): 12/20 (60%), 0/15 (0%), 100%, not calculated
Carcinogen: NONE USED, Dose [Inhibitor]: 0, 5% IN DIET FROM 8 MO OF AGE (STUDY DURATION: 15 MO), Route [Inhibitor]: ORAL, Species: MOUSE, Strain/Sex: C3H/FEMALE, Target Tissue: Type of Lesion: MAMMARY GLAND: TUMOR, Promoter: NONE USED
  tumour outcome (control, treated, inhibition, significance): 12/20 (60%), 7/21 (33%), 45%, not calculated
Carcinogen: NONE USED, Dose [Inhibitor]: O, 5% IN DIET FROM 12 MO OF AGE (STUDY DURATION: 15 MO), Route [Inhibitor]: ORAL, Species: MOUSE, Strain/Sex: C3H/FEMALE, Target Tissue: Type of Lesion: MAMMARY GLAND: TUMOR, Promoter: NONE USED
  tumour outcome (control, treated, inhibition, significance): 12/20 (60%), 5/17 (29%), 52%, not calculated
